Common to all, as to type: functional, cell-based
For one assay, the system named is MCF7. Kind of assay: Cytotoxicity was evaluated in vitro against MCF-7 (mammary carcinoma) human tumor cell lines.
In a further assay the test system is A121. Kind of assay: Cytotoxicity was evaluated in vitro against A121 (ovarian carcinoma) human tumor cell lines.
The test system of a further assay is A549. Kind of assay: Cytotoxicity was evaluated in vitro against A549 (non-small cell lung carcinoma) human tumor cell lines.
The next assay concerns HT-29. Kind of assay: Cytotoxicity was evaluated in vitro against HT-29 (colon carcinoma) human tumor cell lines.

With `CC(=O)O[C@@]12CO[C@@H]1C[C@H](O)[C@@]1(C)C(=O)[C@H](O)C3=C(C)[C@@H](OC(=O)[C@H](O)[C@@H](NC(=O)OC(C)(C)C)c4ccccc4)C[C@@](O)([C@@H](OC(=O)c4ccccc4)[C@H]21)C3(C)C` [DOCETAXEL], the IC50 (usually the midpoint of a concentration-inhibition curve) was found to be 1 nM in the assay with MCF7, 1.2 nM in the assay with A121, 1 nM in the assay with A549 and 1.2 nM in the assay on HT-29.
For the compound `CC(=O)O[C@@]12CO[C@@H]1C[C@H](O)[C@@]1(C)C(=O)[C@H](O)C3=C(C)[C@@H](OC(=O)[C@H](O)[C@@H](NC(=O)OC(C)(C)C)c4ccccc4)[C@@H]4OC(C)(C)O[C@]4([C@@H](OC(=O)c4ccccc4)C12)C3(C)C` (some centres not stated), the IC50 with MCF7 stood at 34 nM; with A121 it was 46 nM; in the assay on A549, 18 nM; with HT-29 it was 21 nM.
Regarding `CC(=O)O[C@@]12CO[C@@H]1C[C@H](O)[C@@]1(C)C(=O)[C@H](O)C3=C(C)[C@@H](OC(=O)[C@H](O)[C@@H](NC(=O)OC(C)(C)C)c4ccccc4)[C@H](O)[C@@](O)([C@@H](OC(=O)c4ccccc4)C12)C3(C)C` (some centres not stated), the IC50 is 1.9 nM in the assay on MCF7, 3.3 nM with A121, 0.8 nM with A549 and 2.1 nM in the assay with HT-29.

For the origin of these results see ChEMBL document CHEMBL1127920, “Synthesis and biological activity of 14-hydroxydocetaxel” (Bioorg Med Chem Lett, 1994).
